In data set [1] the test system is Green rice leafhopper (Nephotettix cincticeps). The data set can be described thus: Mortality of Green rice leafhopper female adults on pot-grown rice plants treated with a 1000 ppm suspension (Test Example 1). The class given is in vivo. The protocol:
10 ml of a 1000 ppm suspension of each sample compound (30% wettable powder) was poured into a pot in which rice plant (1.5 leaf stage) was grown, and the pot was placed in a greenhouse enclosed by glass. 3 days after applying the sample compound, the rice plant was covered by a cylindrical metal netting having a diameter of 7.5 cm and a height of 40 cm and 10 female adults of Green rice leafhopper (Nephotettix cincticeps) were released in the netting. The numbers of living and dead insects were checked 48 hours after applying. The test was repeated twice.

The subject of the next data set is second instar larvae. The data set can be described thus: Mortality of second instar larvae on pot-grown cabbage treated with a 1000 ppm suspension (Test Example 2). The class given is in vivo. On the procedure:
30 ml of a 1000 ppm suspension of each sample compound (30% wettable powder) was poured into a pot in which cabbage (2 to 3 leaf stage) was grown, and the pot was placed in a greenhouse enclosed by glass. 3 days after applying the sample compound, the cabbage was covered by a cylindrical metal netting having a diameter of 7.5 cm and a height of 20 cm and 10 second instar larvae were released in the netting. 48 hours after applying the numbers of living and dead insects were checked. The test was repeated twice.

Data set [2] concerns Southern root-knot nematode (Meloidogyne incognita). The data set can be described thus: Root-knot index on tomato seedlings in soil contaminated with Southern root-knot nematode (Test Example 3). To be noted: 3% granule, checked 25 days after transplanting. The format is in vivo. On the procedure:
A predetermined quantity of a 3% granule of each compound was mixed with a soil contaminated with Southern root-knot nematode (Meloidogyne incognita). 2 days after treatment of the compound, 3 to 4 leaf stage tomato seedlings were transplanted, and the root-knot index was checked 25 days later.
The root-knot index was determined with the following standard for nemotoidal evaluation.
2 Moderate number of root-knots found
4 Very many root-knots found

Data set [3] can be described thus: Acute oral toxicity in mice (Toxicity Test Example). The conditions noted are these: mouse, in vivo, male mice, 7 days after administration, Litchfield-Wilcoxon Method. The protocol: Representative examples of the compound of this invention were administered orally to mice (.male.) and the acute toxicities thereof were tested. LD50 was calculated from the percentage of dead mice according to the Litchfield-Wilcoxon Method 7 days after the administration.

Data set [4] concerns warm-blooded animals and fishes. To be noted: prior art statement; cited from earlier work.

Read-outs that look alike come from different tables or passages of the source.

Usually mortality stands for the share of the test organisms that died. For `CN(C(=O)NS(=O)(=O)Cl)C(=O)Oc1cccc2c1OC(C)(C)C2` [Compound No. 1, 2,3-Dihydro-2,2-dimethylbenzofuran-7-yl N-(chlorosulfonylcarbamoyl) N-methylcarbamate], the mortality at 1000 ppm (in data set [1] (48 h); in the data set with second instar larvae (48 h)) was 100% in each case. Also, the “Root-Knot Index” value in data set [2] (Active Ingredient 250 g/a) is on record as 2; in data set [2] (Active Ingredient 500 g/a), 1.

Consider `CNS(=O)(=O)NC(=O)N(C)C(=O)Oc1cccc2c1OC(C)(C)C2` [Compound No. 2, 2,3-Dihydro-2,2-dimethylbenzofuran-7-yl N-(methylsulfamoylcarbamoyl) N-methylcarbamate], for which the mortality at 1000 ppm (in data set [1] (48 h); with second instar larvae (48 h)) was 100% in each case. Moreover, the “Root-Knot Index” value is on record as 3 in data set [2] (Active Ingredient 250 g/a) and 2 in data set [2] (Active Ingredient 500 g/a).

Usually LD50 stands for the dose expected to kill half of the subjects tested. The low end stands for a more toxic substance, the high end for a less toxic substance. On to `CCNS(=O)(=O)NC(=O)N(C)C(=O)Oc1cccc2c1OC(C)(C)C2` [Compound No. 3, 2,3-Dihydro,2,2-dimethylbenzofurane-7-yl N-(ethylsulfamoylcarbamoyl) N-methylcarbamate], for which the mortality at 1000 ppm (in data set [1] (48 h); in the data set on second instar larvae (48 h)) was 100% in each case. Moreover, the “Root-Knot Index” value worked out at 2 in data set [2] (Active Ingredient 250 g/a) and 1 in data set [2] (Active Ingredient 500 g/a). The LD50 at 168 h in data set [3] came to 170 mg/kg.

As to `CC(C)NS(=O)(=O)NC(=O)N(C)C(=O)Oc1cccc2c1OC(C)(C)C2` [Compound No. 4], the mortality at 1000 ppm (in data set [1] (48 h); with second instar larvae (48 h)) was 100% in each case. The entries for the “Root-Knot Index” value in data set [2] (Active Ingredient 250 g/a) and in data set [2] (Active Ingredient 500 g/a) were 2 and 1, respectively.

`CCCCNS(=O)(=O)NC(=O)N(C)C(=O)Oc1cccc2c1OC(C)(C)C2` [Compound No. 5, 2,3-dihydro-2,2-dimethylbenzofuran-7-yl N-(butylsulfamoylcarbamoyl) N-methylcarbamate]: the mortality at 1000 ppm (in data set [1] (48 h); with second instar larvae (48 h)) was 100% in each case. Further, the “Root-Knot Index” value in data set [2] (Active Ingredient 250 g/a) is 2; in data set [2] (Active Ingredient 500 g/a), 1. Also, in data set [3], the 50% lethal dose (LD50) at 168 h is 200 mg/kg.

Take `CNC(=O)Oc1cccc2c1OC(C)(C)C2` [Control, 2,3-dihydro-2,2-dimethylbenzofuran-7-yl N-methyl-carbamate]: the “toxicity to warm-blooded animals and fishes” value in data set [4] was “extremely toxic to warm-blooded animals and fishes”.

Consider `CNC(=O)Oc1cccc2c1OC(C)(C)C2` [Control], for which the mortality at 1000 ppm is 100% in data set [1] (10 ml of 1000 ppm suspension (30% wettable powder) per pot, insects released 3 days after applying, checked at 48 hours, repeated twice, read-out: Mortality) and 100% with second instar larvae (30 ml of 1000 ppm suspension (30% wettable powder) per pot, larvae released 3 days after applying, checked at 48 hours, repeated twice, read-out: Mortality). Further, the LD50 at 168 h in data set [3] is 5 mg/kg.

For the molecule `C#CCNS(=O)(=O)NC(=O)N(C)C(=O)Oc1cccc2c1OC(C)(C)C2` [compound 7, 2,3-dihydro-2,2-dimethylbenzofuran-7-yl N-(propargylsulfamoylcarbamoyl) N-methylcarbamate], the mortality at 1000 ppm (in data set [1] (48 h); with second instar larvae (48 h)) was 100% each time. The figures for the “Root-Knot Index” value in data set [2] (Active Ingredient 250 g/a) and in data set [2] (Active Ingredient 500 g/a) were 2 and 1, respectively.

In data set [1] (48 h), `CN(C(=O)NS(=O)(=O)Nc1ccccc1Cl)C(=O)Oc1cccc2c1OC(C)(C)C2` [compound 8] yielded a mortality at 1000 ppm of 90%. In addition, the entries for the “Root-Knot Index” value in data set [2] (Active Ingredient 250 g/a) and in data set [2] (Active Ingredient 500 g/a) were 3 and 2, respectively.

On to `COc1ccccc1NS(=O)(=O)NC(=O)N(C)C(=O)Oc1cccc2c1OC(C)(C)C2` [compound 9], for which, in data set [1] (48 h), the mortality at 1000 ppm amounted to 90%. Moreover, the “Root-Knot Index” value in data set [2] (Active Ingredient 250 g/a) came to 3; in data set [2] (Active Ingredient 500 g/a), 2.

On to `COC(=O)c1ccccc1NS(=O)(=O)NC(=O)N(C)C(=O)Oc1cccc2c1OC(C)(C)C2` [compound 10], for which the mortality at 1000 ppm in data set [1] (48 h) is 90%. Further, the figures for the “Root-Knot Index” value in data set [2] (Active Ingredient 250 g/a) and in data set [2] (Active Ingredient 500 g/a) were 2 and 1, respectively.

In data set [1] (48 h), `CCOC(=O)c1ccc(NS(=O)(=O)NC(=O)N(C)C(=O)Oc2cccc3c2OC(C)(C)C3)cc1` [compound 11] came in with a mortality at 1000 ppm of 90%. For the same molecule, the “Root-Knot Index” value in data set [2] (Active Ingredient 250 g/a) turned out to be 3; in data set [2] (Active Ingredient 500 g/a) it was 2.

The molecule `CN(C(=O)NS(=O)(=O)Nc1nccs1)C(=O)Oc1cccc2c1OC(C)(C)C2` [compound 12] yielded a mortality at 1000 ppm in data set [1] (48 h) of 100%. For the same molecule, the results for the “Root-Knot Index” value in data set [2] (Active Ingredient 250 g/a) and in data set [2] (Active Ingredient 500 g/a) were 3 and 2, respectively.

On to `CN(C(=O)NS(=O)(=O)Nc1ccccn1)C(=O)Oc1cccc2c1OC(C)(C)C2` [compound 13], for which, in data set [1] (48 h), the mortality at 1000 ppm worked out at 100%. Moreover, the results for the “Root-Knot Index” value in data set [2] (Active Ingredient 250 g/a) and in data set [2] (Active Ingredient 500 g/a) were 3 and 2, respectively.

`CONS(=O)(=O)NC(=O)N(C)C(=O)Oc1cccc2c1OC(C)(C)C2` [compound 14, 2,3-dihydro-2,2-dimethylbenzofuran-7-yl N-(methoxysulfamoylcarbamoyl) N-methylcarbamate] showed a mortality at 1000 ppm in data set [1] (48 h) of 100%. For the same molecule, the “Root-Knot Index” value in data set [2] (Active Ingredient 250 g/a) is recorded as 3; in data set [2] (Active Ingredient 500 g/a), 2.

As to `CCCNS(=O)(=O)NC(=O)N(C)C(=O)Oc1cccc2c1OC(C)(C)C2` [compound 15, 2,3-dihydro-2,2-dimethylbenzofuran-7-yl N-(propylsulfamoylcarbamoyl) N-methylcarbamate], the mortality at 1000 ppm (in data set [1] (48 h); with second instar larvae (48 h)) was 100% each time. The “Root-Knot Index” value in data set [2] (Active Ingredient 250 g/a) was 2; in data set [2] (Active Ingredient 500 g/a), 1.

Consider `CCC(C)NS(=O)(=O)NC(=O)N(C)C(=O)Oc1cccc2c1OC(C)(C)C2` (centres unmarked) [compound 16], for which the mortality at 1000 ppm (in data set [1] (48 h); in the data set on second instar larvae (48 h)) was 100% throughout. In addition, the “Root-Knot Index” value in data set [2] (Active Ingredient 250 g/a) is 2; in data set [2] (Active Ingredient 500 g/a), 1.

`CN(C(=O)NS(=O)(=O)NC(C)(C)C)C(=O)Oc1cccc2c1OC(C)(C)C2` [compound 17]: the mortality at 1000 ppm (in data set [1] (48 h); in the data set with second instar larvae (48 h)) was 100% in each case. Also, the results for the “Root-Knot Index” value in data set [2] (Active Ingredient 250 g/a) and in data set [2] (Active Ingredient 500 g/a) were 2 and 1, respectively.

Molecule `CN(C(=O)NS(=O)(=O)NC1CCCC1)C(=O)Oc1cccc2c1OC(C)(C)C2` [compound 18] displayed a mortality at 1000 ppm in data set [1] (48 h) of 80%.

With `CN(C(=O)NS(=O)(=O)NC1CCCCC1)C(=O)Oc1cccc2c1OC(C)(C)C2` [compound 19], the mortality at 1000 ppm in data set [1] (48 h) came out at 80%.

The record behind these values is patent US4966896A, “Derivative of N-methylcarbamate and insecticide containing the same” (priority 1988, dated 1990).
